Source: PMC6978316, “Development of chimeric peptides to facilitate the neutralisation of lipopolysaccharides during bactericidal targeting of multidrug-resistant Escherichia coli” (Communications Biology, 2020)
Where a SMILES comes first, the peptide text is derived from it. Bridges are numbered along the chain shown (N, C = ends).

Columns and labels:
E. coli CVCC1515 = assay: MIC, microtiter broth dilution; assay type: cell-based, Escherichia coli; settings: 37 °C, 16–18 h, three independent experiments
Experimental: (§1) The MIC values of A6, G6, the parental peptides (N6 and LBP14), LBPN6, scramble controls (N6CK, A6CK, and G6CK), and PMB were determined by the microtiter broth dilution method. The tested strains included Gram-negative bacteria, Gram-positive bacteria, and fungi and were cultured to the logarithmic growth phase, diluted to 10^5 CFU per ml, and added into 96-well plates (90 μl per well). Peptides or antibiotic were diluted with PBS by 2-fold dilution and were added to each well (10 μl per well). Polymyxin B (PMB) and PBS were used as the positive and negative control, respectively. […] All experiments were repeated three times.

S. pullorum CVCC533 = assay: MIC, microtiter broth dilution; assay type: cell-based, Salmonella pullorum; settings: 37 °C, 16–18 h, three independent experiments
Experimental: as §1

[1] = system: Enterococcus faecalis CVCC3936; assay: MIC, microtiter broth dilution; assay type: cell-based; settings: 37 °C, 16–18 h, three independent experiments
Experimental: as §1

[2] = system: Pseudomonas aeruginosa CICC10419; assay: MIC, microtiter broth dilution; assay type: cell-based; settings: 37 °C, 16–18 h, three independent experiments
Experimental: as §1

[3] = system: Staphylococcus aureus ATCC43300; assay: MIC, microtiter broth dilution; assay type: cell-based; settings: 37 °C, 16–18 h, three independent experiments
Experimental: as §1

[4] = system: Streptococcus suis CVCC606; assay: MIC, microtiter broth dilution; assay type: cell-based; settings: 37 °C, 16–18 h, three independent experiments
Experimental: as §1

pepsin = assay type: in vitro ADME
trypsin = assay type: in vitro ADME
in vitro = settings: for peptide remained intact in serum / remaining at 1 h / remaining at 2 h / remaining at 4 h: mice serum, 37 °C, RP-HPLC; for half-life / remaining at 1 h / remaining at 2 h / remaining at 4 h: mouse, serum
Experimental: The thermal, pH and enzyme stability of A6 and G6 were evaluated against MDR E. coli CVCC195 using a previous method with minor revisions. The N6, A6, and G6 solutions were treated at different temperatures (20–100 °C) for 1 h, dissolved and incubated at different pH values (2–10) for 3 h, or incubated with trypsin or pepsin for 4 h. The inhibition zone diameters were measured after incubation at 37 °C for 18–24 h. The peptides were dissolved in H2O or mice serum at 37 °C to detect their serum stability and samples were removed at different time points to determine their residual activity by the inhibition zone or reverse-phase high-performance liquid chromatography (RP-HPLC) methods[62],[63].

[5] = Biodistribution of FITC-labeled peptides (in vivo fluorescence imaging); settings: nude mice, FITC-labeled peptide 5 mg per kg intraperitoneally
Experimental: The nude mice were intraperitoneally injected with 5 mg per kg FITC-labeled A6, G6, and N6, respectively. Free FITC was used as a negative control.

ERK1/2 phosphorylation = assay: Western blotting of lung tissues, p-ERK1/2/ERK1/2; assay type: in vivo, mice; settings: for densitometric analysis of p-ERK1/2/ERK1/2 ratio: LPS + substance, Mean; for attenuation of ERK1/2 phosphorylation: lung tissue 8 h, LPS 13.5 mg per kg, western blotting, densitometry
Experimental: Additionally, the mice were sacrificed at 8 h and the lung tissues were homogenized and suspended in […] HEPES buffer for 20 min according to standard procedures. After centrifugation at 4 °C for 20 min (12,000 rpm), the protein levels of supernatants were quantified using a Bradford protein assay kit. A total of 30 μg proteins were analyzed on an 8–12% sodium dodecyl sulfate-polyacrylamide gel electrophoresis (SDS-PAGE) gel and were immunoblotted onto PVDF membranes, followed by an incubation with the primary antibodies of p65, p-p65, extracellular signal-regulated kinase (ERK)1/2, p-ERK1/2, and IκBα overnight at 4 °C. After washing, the blots were incubated with the peroxidase conjugated goat-rabbit or goat-mouse antibodies. Relative protein expression levels were quantified by a densitometric measurement of chemiluminescence (ECL) reaction band. β-actin was used as the internal reference.

[6] = system: S. aureus, Enterococcus faecalis, and Streptococcus suis; assay type: cell-based
Experimental: as §1

MDR E. coli CVCC195 = assay: Sepsis mouse model, survival after lethal E. coli challenge; assay type: in vivo, ICR mice; settings: mice, E. coli 5 × 10^8 CFU i.p.; 0.25 μmol per kg; 7 d; n = 5
Experimental: The mouse survival was recorded for 7 d. The mice injected with LPS or saline were used as negative or blank controls, respectively.

[7] = peptide remaining in serum, Mean, 1 h, mean of n = 3 (source data Fig. 2f)
[8] = peptide remaining in serum, Mean, 2 h, mean of n = 3 (source data Fig. 2f)
[9] = peptide remaining in serum, Mean, mean of n = 3 (source data Fig. 2f)

Row | Compound | antibacterial activity after pepsin (inhibition zone diameter), Mean (pepsin) | antibacterial activity without enzyme (inhibition zone diameter), Mean (pepsin) | antibacterial activity after trypsin (inhibition zone diameter), Mean (trypsin) | half-life (in vitro) [h] | remaining at 1 h (in vitro; [7]) [%] | remaining at 2 h (in vitro; [8]) [%] | remaining at 4 h (in vitro; [9]) [%] | time after injection at which the fluorescence disappeared / peptide was excreted [5] [h] | densitometric analysis of p-ERK1/2/ERK1/2 ratio (ERK1/2 phosphorylation) | attenuation of ERK1/2 phosphorylation (ERK1/2 phosphorylation) | MICs against S. aureus, Enterococcus faecalis, and Streptococcus suis [6] | further results
1 | CC(C)[C@@H]1NC(=O)CNC(=O)[C@H](CC(N)=O)NC(=O)[C@H](CCCNC(=N)N)NC(=O)[C@H](Cc2ccc(O)cc2)NC(=O)[C@H](C(C)C)NC(=O)[C@@H](NC(=O)[C@@H](NC(=O)[C@H](CC(N)=O)NC(=O)[C@H](Cc2c[nH]c3ccccc23)NC(=O)[C@H](C)NC(=O)[C@H](Cc2ccccc2)NC(=O)CNC(=O)[C@H](CO)NC(=O)CNC(=O)CNC(=O)CNC(=O)CNC(=O)[C@H](CCCCN)NC(=O)[C@H](Cc2ccccc2)NC(=O)[C@H](Cc2ccccc2)NC(=O)[C@H](CO)NC(=O)[C@H](C)NC(=O)[C@H](CCCNC(=N)N)NC(=O)[C@@H](NC(=O)[C@H](CCCCN)NC(=O)[C@H](Cc2c[nH]c3ccccc23)NC(=O)[C@H](CCCNC(=N)N)NC(=O)CNC(=O)[C@H](CCC(N)=O)NC(=O)[C@@H](NC(=O)[C@@H](N)CCCNC(=N)N)C(C)C)C(C)C)C(C)C)CSSC[C@@H](C(=O)N[C@@H](Cc2c[nH]cn2)C(=O)N[C@@H](CCCNC(=N)N)C(=O)N[C@@H](CCCNC(=N)N)C(=O)N[C@@H](C)C(=O)N[C@@H](CC(N)=O)C(=O)O)NC(=O)[C@H](C(C)C)NC(=O)[C@H](CCCNC(=N)N)NC1=O [G6] (H-RVQGRWKVRASFFKGGGGSGFAWNVCVYRNGVRVCHRRAN-OH; disulfide 26-35) | 1.607 | 1.439 | 0 | < 2 | 68.6 | 29.6 | 11.2 | 48 | 0.1248 | 88.2% | greater than 3.52 μM | MIC (E. coli CVCC1515): 16 μg per ml; MIC (S. pullorum CVCC533): 16 μg per ml; MIC [1]: 16 μg per ml; MIC [2]: 16 μg per ml; MIC [3]: 16 μg per ml; MIC [4]: 16 μg per ml; peptide remained intact in serum (in vitro; 1 h): 68.5%; peptide remained intact in serum (in vitro; 2 h): 29.5%
2 | CC(C)[C@@H]1NC(=O)CNC(=O)[C@H](CC(N)=O)NC(=O)[C@H](CCCNC(=N)N)NC(=O)[C@H](Cc2ccc(O)cc2)NC(=O)[C@H](C(C)C)NC(=O)[C@@H](NC(=O)[C@@H](NC(=O)[C@H](CC(N)=O)NC(=O)[C@H](Cc2c[nH]c3ccccc23)NC(=O)[C@H](C)NC(=O)[C@H](Cc2ccccc2)NC(=O)CN)C(C)C)CSSC[C@@H](C(=O)N[C@@H](Cc2c[nH]cn2)C(=O)N[C@@H](CCCNC(=N)N)C(=O)N[C@@H](CCCNC(=N)N)C(=O)N[C@@H](C)C(=O)N[C@@H](CC(N)=O)C(=O)O)NC(=O)[C@H](C(C)C)NC(=O)[C@H](CCCNC(=N)N)NC1=O [N6] (H-GFAWNVCVYRNGVRVCHRRAN-OH; disulfide 7-16; N-terminus and C-terminus assumed) |  |  |  |  |  |  |  |  | 0.9271 | 16.1% |  | 
3 | H-RVQGRWKVRASFFKEAAAKEAAAKGFAWNVCVYRNGVRVCHRRAN-OH (disulfide 31-40) [A6] | 1.623 | 1.456 | 0 | < 2 | 27 | 7.18 | 4.77 | 48 | 1.795 | moderately promoted the ERK1/2 phosphorylation | greater than 3.52 μM | remaining at 2 h (in vitro; peptide remained intact in serum, 2 h): 7%
4 | polymyxin B [PMB] |  |  |  |  |  |  |  |  | 1.579 | moderately promoted the ERK1/2 phosphorylation |  | survival rate (MDR E. coli CVCC195): 100%
